Values joined by “and” are separate entries in the source; they are usually repeats but may differ in a detail not shown here. Identical values can stand only once. Like-named read-outs stand apart in the source and are kept apart here.

The values that follow come from patent US4623662A, “Antiatherosclerotic ureas and thioureas” (American Cyanamid Company, priority 1985, dated 1986).

Experiment [1] has as its target T1, fatty acyl CoA: cholesterol acyl transferase (ACAT) (Rattus norvegicus, UniProt O70536).
T1 construct: The supernatant, containing the microsomal fraction, served as the source of the cholesterol-esterifying enzyme; from tissue; host or cells: rat adrenals, supernatant of 1,000 x g centrifugation containing the microsomal fraction
T1 sequence (O70536 1-545): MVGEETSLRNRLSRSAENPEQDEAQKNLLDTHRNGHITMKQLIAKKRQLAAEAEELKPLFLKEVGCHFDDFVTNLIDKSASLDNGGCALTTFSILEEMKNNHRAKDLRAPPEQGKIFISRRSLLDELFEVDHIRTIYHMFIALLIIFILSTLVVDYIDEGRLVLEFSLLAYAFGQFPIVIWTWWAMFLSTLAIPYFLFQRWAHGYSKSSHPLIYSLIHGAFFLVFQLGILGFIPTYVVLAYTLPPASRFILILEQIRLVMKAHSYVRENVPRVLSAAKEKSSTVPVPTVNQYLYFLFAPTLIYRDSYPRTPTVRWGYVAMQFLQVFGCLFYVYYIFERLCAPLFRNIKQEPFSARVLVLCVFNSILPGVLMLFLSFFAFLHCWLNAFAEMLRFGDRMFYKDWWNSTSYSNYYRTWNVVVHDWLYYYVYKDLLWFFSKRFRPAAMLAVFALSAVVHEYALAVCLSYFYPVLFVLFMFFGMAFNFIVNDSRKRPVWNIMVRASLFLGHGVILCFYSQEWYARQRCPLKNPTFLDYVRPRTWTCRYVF
Description: Inhibition of fatty acyl CoA:cholesterol acyl transferase (ACAT), rat adrenal enzyme. Type of experiment: biochemical. Particulars: for IC50: several concentrations. In short, it runs like this:
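Enzyme source was the microsomal supernatant of rat adrenal homogenate (0.2M potassium phosphate, pH 7.4) with BSA, preincubated with compound (5.2 μg/ml final for single-point) for 10 min at 37° C. Then [14C]oleoyl CoA added, 10 min at 37° C. TLC-separated cholesteryl ester was counted; percent inhibition versus control, IC50 from several concentrations.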

Experiment [2] relates to cholesterol absorption. Kind of experiment: Inhibition of cholesterol absorption in rats fed 1% cholesterol:0.5% cholic acid diet. In kind it is in vivo, male Sprague-Dawley rats. Particulars: po, 336 h, rat, 2 weeks; for response vs control in vivo at 0.03 %: dose .03% of the diet; for response vs control in vivo at 0.01 %: dose .01% of the diet. In a few lines: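 Male Sprague-Dawley rats (150-170 g) fed 1% cholesterol:0.5% cholic acid diet for 2 weeks with compound at 0.001, 0.003, 0.01 or 0.03% of diet. Serum cholesterol measured enzymatically; liver cholesterol from saponified large-lobe sample after petroleum ether extraction. Liver and serum sterol expressed as percent of untreated controls.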

The mark [3] stands for this setting: read-out: LS (liver sterol), percentage of control values.
Setting [4] is: read-out: SS (serum sterol), percentage of control values.
Setting [5] is: rat adrenal ACAT, final concentration 5.2 μg/ml, read-out: % Inhibition.

By inhibition is commonly meant the drop in the measured response relative to a control, in per cent. `CCCCc1ccc(CN(CCC(C)(C)C)C(=O)Nc2ccc(F)cc2F)cc1` [1-(3,3-Dimethylbutyl)-1-[4-(n-butyl)benzyl]-3-(2,4-difluorophenyl)urea]: at 5.2 µg/mL the inhibition in experiment [1] was 90%. In addition, the response vs control in vivo at 0.03 % in experiment [2] (setting [3]) is 30%; in experiment [2] (setting [4]) it was 39%.
In the same order, the values of `CCCCc1ccc(CN(CCCCCCCl)C(=O)Nc2cc(C)c(C)cc2C)cc1` [1-[(4-Butylphenyl)methyl]-1-(6-chlorohexyl)-3-(2,4,5-trimethylphenyl)urea] are 90%, 15% and 40%.
One may read the IC50 as the point on the concentration scale where inhibition reaches its midpoint. The low end stands for inhibition by little substance, the high end for a need for much substance. With `CCCCCCCN(Cc1ccc(C(C)C)cc1)C(=O)Nc1c(F)cc(F)cc1F` [1-(n-Heptyl)-1-[4-(isopropyl)benzyl]-3-(2,4,6-trifluorophenyl)urea], in experiment [1] (rat adrenal ACAT), the IC50 turned out to be 350 nM. Moreover, the results for the response vs control in vivo at 0.01 % in experiment [2] (setting [3]) and in experiment [2] (setting [4]) were 23% and 40%, respectively.
In the same order, the values of `CCCCCCCN(Cc1ccc(CCCC(=O)OCC)cc1)C(=O)Nc1c(C)cc(Cl)cc1C` [1-(n-Heptyl)-1-[4-(3-carboethoxypropyl)benzyl]-3-(4-chloro-2,6-dimethylphenyl)urea] are 1080 nM, 65% and 55%.
On to `Cc1cc(Cl)cc(C)c1NC(=O)N(CCC(C)(C)C)Cc1ccc(CC(C)(C)C)cc1` [1-(3,3-Dimethylbutyl)-1-[4-(2,2-dimethylpropyl)benzyl]-3-(4-chloro-2,6-dimethylphenyl)urea], for which, in experiment [1], the inhibition at 5.2 µg/mL was 90%. In addition, the response vs control in vivo at 0.03 % in experiment [2] (setting [3]) was determined as 11%; in experiment [2] (setting [4]), 31%.
In the case of `CCCCOc1ccc(CN(Cc2ccccc2)C(=O)Nc2c(Cl)cc(Cl)cc2Cl)cc1` [1-Benzyl-1-(4-n-butoxybenzyl)-3-(2,4,6-trichlorophenyl)urea], the inhibition at 5.2 µg/mL in experiment [1] (setting [5]) is 95.2%. Further, the response vs control in vivo at 0.03 % came out at 8% in experiment [2] (setting [3]) and 40% in experiment [2] (setting [4]).
In the same order, the values of `CCCCc1ccc(CN(CCC(C)(C)C)C(=O)Nc2ccc(Cl)cc2C)cc1` [1-(3,3-Dimethylbutyl)-1-[4-(n-butyl)benzyl]-3-(4-chloro-2-methylphenyl)urea] are 90.5%, 13% and 46%.
The compound `CCCCc1ccc(CN(CCCCC[Si](C)(C)C)C(=O)Nc2ccc(Cl)cc2C)cc1` [1-[(4-Butylphenyl)methyl]-3-(4-chloro-2-methylphenyl)-1-[5-(trimethylsilyl)pentyl]urea] registered an inhibition at 5.2 µg/mL in experiment [1] of 90%. Further, the response vs control in vivo at 0.03 % in experiment [2] (setting [3]) amounted to 62%; in experiment [2] (setting [4]) it was 50%.
In experiment [1] (rat adrenal ACAT), `CC(C)CCN(Cc1ccc(C(C)C)cc1)C(=O)Nc1ccc(F)cc1F` [1-(Isopentyl)-1-[4-(isopropyl)benzyl]-3-(2,4-difluorophenyl)urea] came in with an IC50 of 3370 nM. Moreover, the response vs control in vivo at 0.03 % in experiment [2] (setting [3]) is 37%; in experiment [2] (setting [4]), 49%.
For `CCCCCCCN(Cc1ccc(OCCCC)cc1)C(=O)Nc1ccc(Cl)cc1C(F)(F)F` [1-(n-Heptyl)-(4-n-butoxybenzyl)-3-(2-trifluoromethyl-4-chlorophenyl)urea], in experiment [1] (setting [5]), the inhibition at 5.2 µg/mL was 89.4%. Further, the results for the response vs control in vivo at 0.03 % in experiment [2] (setting [3]) and in experiment [2] (setting [4]) were 35% and 59%, respectively.
The compound `CCCCCCCN(Cc1ccc(OCCCC)cc1)C(=O)Nc1c(Cl)cc(Cl)cc1Cl` [1-(n-Heptyl)-1-(4-n-butoxybenzyl)-3-(2,4,6-trichlorophenyl)urea] returned an inhibition at 5.2 µg/mL in experiment [1] of 90%. Moreover, the response vs control in vivo at 0.03 % is 11% in experiment [2] (setting [3]) and 35% in experiment [2] (setting [4]).
`O=C(Nc1ccc(Cl)cc1Cl)N(Cc1ccc(Cl)cc1)Cc1cccc2ccccc12` [1-(4-Chlorobenzyl)-1-(1-naphthylmethyl)-3-(2,4-dichlorophenyl)urea]: the inhibition at 5.2 µg/mL in experiment [1] (setting [5]) was found to be 92%. The figures for the response vs control in vivo at 0.03 % in experiment [2] (setting [3]) and in experiment [2] (setting [4]) were 48% and 50%, respectively.
Take `Cc1cc(Cl)ccc1NC(=O)N(Cc1ccc(Cl)cc1)Cc1cccc2ccccc12` [1-(4-Chlorobenzyl)-1-(1-naphthylmethyl)-3-(2-methyl-4-chlorophenyl)urea]: the inhibition at 5.2 µg/mL in experiment [1] (setting [5]) was determined as 94%. In addition, the values for the response vs control in vivo at 0.03 % in experiment [2] (setting [3]) and in experiment [2] (setting [4]) were 17% and 35%, respectively.
On to `CCCCOc1ccc(CN(CCC(C)(C)C)C(=O)Nc2ccc(F)cc2F)cc1` [1-(3,3-Dimethylbutyl)-1-[4-(n-butoxy)benzyl]-3-(2,4-difluorophenyl)urea], for which the inhibition at 5.2 µg/mL in experiment [1] was determined as 90%. For the same compound, the figures for the response vs control in vivo at 0.03 % in experiment [2] (setting [3]) and in experiment [2] (setting [4]) were 32% and 42%, respectively.
Consider `CCCCCCCN(Cc1ccc(CCCC)cc1)C(=O)Nc1ccc(Cl)cc1Cl` [1-(n-Heptyl)-1-(4-n-butylbenzyl)-3-(2,4-dichlorophenyl)urea], for which the inhibition at 5.2 µg/mL in experiment [1] (setting [5]) is 80%. The response vs control in vivo at 0.03 % turned out to be 50% in experiment [2] (setting [3]) and 58% in experiment [2] (setting [4]).
As to `O=C(Nc1cc(Cl)c(Cl)cc1Cl)N(Cc1ccc(Cl)cc1)Cc1cccc2ccccc12` [1-(4-Chlorobenzyl)-1-(1-naphthylmethyl)-3-(2,4,5-trichlorophenyl)urea], the inhibition at 5.2 µg/mL in experiment [1] (setting [5]) amounted to 86%. The figures for the response vs control in vivo at 0.03 % in experiment [2] (setting [3]) and in experiment [2] (setting [4]) were 97% and 84%, respectively.
In the same order, the values of `CCCCCCCN(CCc1ccccc1)C(=O)Nc1ccc(Cl)cc1C` [1-(n-Heptyl)-1-(2-phenylethyl)-3-(2-methyl-4-chlorophenyl)urea] are 93.8%, 49% and 66%.
`CCCCN(Cc1ccccc1)C(=O)Nc1c(C)cccc1C` [1-Benzyl-1-( -n-butyl)-3-(2,6-dimethylphenyl)urea]: the inhibition at 5.2 µg/mL in experiment [1] (setting [5]) amounted to 83.1%. For the same compound, the response vs control in vivo at 0.03 % stood at 91% in experiment [2] (setting [3]) and 68% in experiment [2] (setting [4]).
The term % Inhibition denotes the percentage by which the read-out fell short of the control. High values mean strong suppression, low ones little suppression. In the case of `O=C(Nc1ccc(F)cc1F)N(Cc1ccccc1)C(Cc1ccccc1)c1ccc(OCc2ccccc2)cc1` (stereo not drawn) [1-Benzyl-1-[2-phenyl-1-(4-benzyloxyphenyl)ethyl]-3-(2,4-difluorophenyl)urea], the “% Inhibition” value in experiment [1] (rat adrenal ACAT, final concentration 5.2 μg/ml) is 70.0% and 91.0%. Moreover, the response vs control in vivo at 0.03 % in experiment [2] (setting [3]) came to 27%; in experiment [2] (setting [4]) it was 48%.
As for `CCCCc1ccc(CN(Cc2ccccc2)C(=O)Nc2ccc(Cl)cc2C)cc1` [1-Benzyl-1-(4-n-butylbenzyl)-3-(2-methyl-4-chlorophenyl)urea], in experiment [1] (setting [5]), the inhibition at 5.2 µg/mL amounted to 94.3%. Also, the response vs control in vivo at 0.03 % in experiment [2] (setting [3]) stood at 21%; in experiment [2] (setting [4]) it was 70%.
Take `CC(C)(C)CCN(Cc1ccc(CC(C)(C)C)cc1)C(=O)Nc1ccc(F)cc1F` [1-(3,3-Dimethylbutyl)-1-[4-(2,2-dimethylpropyl)benzyl]-3-(2,4-difluorophenyl)urea]: in experiment [1], testing at 5.2 µg/mL gave an inhibition of 90%. For the same compound, the response vs control in vivo at 0.03 % in experiment [2] (setting [3]) was 19%; in experiment [2] (setting [4]), 35%.
`CCCCCCCOc1ccc(CN(CCCC)C(=O)Nc2c(C)cc(C)cc2C)cc1` [1-(n-Butyl)-1-(4-heptyloxybenzyl)-3-(2,4,6-trimethylphenyl)urea] registered an inhibition at 5.2 µg/mL in experiment [1] of 97.3%. Further, the response vs control in vivo at 0.03 % in experiment [2] (setting [3]) came to 31%; in experiment [2] (setting [4]), 66%.
Consider `CCCCOc1ccc(CN(Cc2ccccc2)C(=O)Nc2cc(C)c(C)cc2C)cc1` [1-Benzyl-1-(4-butyloxybenzyl)-3-(2,4,5-trimethylphenyl)urea], for which, in experiment [1] (setting [5]), the inhibition at 5.2 µg/mL was determined as 95.8%. The response vs control in vivo at 0.03 % in experiment [2] (setting [3]) was 12%; in experiment [2] (setting [4]) it was 43%.
In the same order, the values of `CCCCCCCN(CCc1ccccc1)C(=O)Nc1ccc(Cl)cc1Cl` [1-(n-Heptyl)-1-(2-phenylethyl)-3-(2,4-dichlorophenyl)urea] are 91.8%, 88% and 81%.
Take `CC(C)(C)CCN(Cc1ccccc1)C(=O)Nc1ccc(F)cc1F` [1-(3,3-Dimethylbutyl)-1-benzyl-3-(2,4-difluorophenyl)urea]: the inhibition at 5.2 µg/mL in experiment [1] was 90%. Besides, the response vs control in vivo at 0.03 % in experiment [2] (setting [3]) is 70%; in experiment [2] (setting [4]), 71%.
